Data from patent publication US9743665B2, “Fungicidal 3-{phenyl[heterocyclylmethoxy)imino]methyl}-oxadiazolone derivatives” (BAYER CROPSCIENCE AKTIENGESELLSCHAFT, priority 2013, dated 2017).
Where two headings read alike, the source gives them in different places. Marks after values point to notes of the source that are not given here.

Columns and labels:
[1] = for LogP: Table 1, formula (I), method [a]: HPLC/LC-MS at pH 2.7, 0.1% formic acid in water / acetonitrile gradient; for chromatographic logP: pH 2.7
Experimental: (§4) Measurement of IogP values was performed according EEC directive 79/831 Annex V.A8 by HPLC (High Performance Liquid Chromatography) on reversed phase columns with the following methods:
(§5) Measurement of LC-MS was done at pH 2.7 with 0.1% formic acid in water and with acetonitrile (contains 0.1% formic acid) as eluent with a linear gradient from 10% acetonitrile to 95% acetonitrile.
(§6) Calibration was done with not branched alkan2-ones (with 3 to 16 carbon atoms) with known logP-values (measurement of logP values using retention times with linear interpolation between successive alkanones). lambda-maX-values were determined using UV-spectra from 200 nm to 400 nm and the peak values of the chromatographic signals.

Phytophthora infestans = assay type: in vivo; settings: tomato plants, preventive spray, 500 ppm of active ingredient, evaluated 5 days after inoculation
Botrytis cinerea = test: Example B: in vivo preventive test on Botrytis cinerea (grey mould); settings: gherkin plants, preventive spray, 500 ppm of active ingredient, evaluated 4 to 5 days after inoculation
Experimental: Example B: In Vivo Preventive Test on Botrytis cinerea (Grey Mould)
(§1) The tested active ingredients are prepared by homogenization in a mixture of acetone/Dimethyl sulfoxide/Tween®, and then diluted with water to obtain the desired active material concentration.
The young plants of gherkin are treated by spraying the active ingredient prepared as described above. Control plants are treated only with an aqueous solution of acetone/Dimethyl sulfoxide/Tween®.
After 24 hours, the plants are contaminated by spraying the leaves with an aqueous suspension of Botrytis cinerea spores. The contaminated gherkin plants are incubated for 4 to 5 days at 17° C. and at 90% relative humidity.
The test is evaluated 4 to 5 days after the inoculation. 0% means an efficacy which corresponds to that of the control plants while an efficacy of 100% means that no disease is observed.

[2] = pH 2.7
Experimental: as §4, §5, §6

Plasmopara viticola = test: Example J: Plasmopara test (grapevines)/preventive; assay type: in vivo; settings: grapevine plants, preventive spray, 10 ppm of active ingredient, evaluated 6 days after inoculation
Experimental: Example J: Plasmopara Test (Grapevines)/Preventive
To produce a suitable preparation of active compound, 1 part by weight of active compound is mixed with the stated amounts of solvent and emulsifier, and the concentrate is diluted with water to the desired concentration.
To test for preventive activity, young plants are sprayed with the preparation of active compound at the stated rate of application. After the spray coating has dried on, the plants are inoculated with an aqueous spore suspension of Plasmopara viticola and then remain for 1 day in an incubation cabinet at approximately 20° C. and a relative atmospheric humidity of 100%. The plant is subsequently placed for 4 days in a greenhouse at approximately 21° C. and a relative atmospheric humidity of approximately 90%. The plants are then misted and placed for 1 day in an incubation cabinet.
The test is evaluated 6 days after the inoculation. 0% means an efficacy which corresponds to that of the untreated control, while an efficacy of 100% means that no disease is observed.

Uromyces appendiculatus = test: Example H: in vivo preventive test on Uromyces appendiculatus (bean rust); settings: bean plants, preventive spray, 500 ppm of active ingredient, evaluated 11 days after inoculation
Experimental: Example H: In Vivo Preventive Test on Uromyces appendiculatus (Bean Rust)
as §1
The young plants of bean are treated by spraying the active ingredient prepared as described above. Control plants are treated only with an aqueous solution of acetone/Dimethyl sulfoxide/Tween®.
After 24 hours, the plants are contaminated by spraying the leaves with an aqueous suspension of Uromyces appendiculatus spores. The contaminated bean plants are incubated for 24 hours at 20° C. and at 100% relative humidity and then for 10 days at 20° C. and at 70-80% relative humidity.
(§2) The test is evaluated 11 days after the inoculation. 0% means an efficacy which corresponds to that of the control plants while an efficacy of 100% means that no disease is observed.

Puccinia recondita = test: Example D: in vivo preventive test on Puccinia recondita (brown rust on wheat); settings: wheat plants, preventive spray, 500 ppm of active ingredient, evaluated 11 days after inoculation
Experimental: Example D: In Vivo Preventive Test on Puccinia recondita (Brown Rust on Wheat)
as §1
(§3) The young plants of wheat are treated by spraying the active ingredient prepared as described above. Control plants are treated only with an aqueous solution of acetone/Dimethyl sulfoxide/Tween®.
After 24 hours, the plants are contaminated by spraying the leaves with an aqueous suspension of Puccinia recondita spores. The contaminated wheat plants are incubated for 24 hours at 20° C. and at 100% relative humidity and then for 10 days at 20° C. and at 70-80% relative humidity.
as §2

Pyrenophora teres = test: Example E: in vivo preventive test on Pyrenophora teres (net blotch on barley); settings: barley plants, preventive spray, 500 ppm of active ingredient, evaluated 14 days after inoculation
Experimental: Example E: In Vivo Preventive Test on Pyrenophora teres (Net Blotch on Barley)
as §1
The young plants of barley are treated by spraying the active ingredient prepared as described above. Control plants are treated only with an aqueous solution of acetone/Dimethyl sulfoxide/Tween®.
After 24 hours, the plants are contaminated by spraying the leaves with an aqueous suspension of Pyrenophora teres spores. The contaminated barley plants are incubated for 48 hours at 20° C. and at 100% relative humidity and then for 12 days at 20° C. and at 70-80% relative humidity.
The test is evaluated 14 days after the inoculation. 0% means an efficacy which corresponds to that of the control plants while an efficacy of 100% means that no disease is observed.

Septoria tritici = test: Example G: in vivo preventive test on Septoria tritici (leaf spot on wheat); settings: wheat plants, preventive spray, 500 ppm of active ingredient, evaluated 24 days after inoculation
Experimental: Example G: In Vivo Preventive Test on Septoria tritici (Leaf Spot on Wheat)
as §1, §3
After 24 hours, the plants are contaminated by spraying the leaves with an aqueous suspension of Septoria tritici spores. The contaminated wheat plants are incubated for 72 hours at 18° C. and at 100% relative humidity and then for 21 days at 20° C. and at 90% relative humidity.
The test is evaluated 24 days after the inoculation. 0% means an efficacy which corresponds to that of the control plants while an efficacy of 100% means that no disease is observed.

Pyricularia oryzae = assay type: in vivo; settings: rice plants, preventive spray, 500 ppm of active ingredient, evaluated 6 days after inoculation
Alternaria brassicae = test: Example A: in vivo preventive test on Alternaria brassicae (leaf spot on radish); settings: radish plants, preventive spray, 500 ppm of active ingredient, evaluated 6 days after inoculation
Experimental: Example A: In Vivo Preventive Test on Alternaria brassicae (Leaf Spot on Radish)
as §1
The young plants of radish are treated by spraying the active ingredient prepared as described above. Control plants are treated only with an aqueous solution of acetone/Dimethyl sulfoxide/Tween®.
After 24 hours, the plants are contaminated by spraying the leaves with an aqueous suspension of Alternaria brassicae spores. The contaminated radish plants are incubated for 6 days at 20° C. and at 100% relative humidity.
The test is evaluated 6 days after the inoculation. 0% means an efficacy which corresponds to that of the control plants while an efficacy of 100% means that no disease is observed.

SMILES | % efficacy (Phytophthora infestans) [%] | LogP [2] | chromatographic logP [1] | also measured
Cn1c(/C(=N\OCc2nc(NC(=O)Cc3ccccc3)cs2)c2ccccc2)noc1=O [Example 19] | 98 |  |  | LogP [1]: 3.21^[a]
Cn1c(/C(=N\OCc2nc(C(=O)NCCc3ccccc3)cs2)c2ccccc2)noc1=O [Example 15] | 100 | 3.27^[a] |  | % efficacy (Botrytis cinerea): 73%; Eff. % (Plasmopara viticola): 75%
Cn1c(C(=NOCc2nc(Br)cs2)c2ccccc2)noc1=O [Example 3, 3-[{[(4-bromo-1,3-thiazol-2-yl)methoxy]imino}(phenyl)methyl]-4-methyl-1,2,4-oxadiazol-5(4H)-one] |  |  | 3.25 | 
CC(C)C#Cc1csc(CO/N=C(/c2ccccc2)c2noc(=O)n2C)n1 [Example 23] | 99 |  |  | LogP [1]: 3.86^[a]
Cn1oc(=O)nc1/C(=N\OCc1nc(C#CC2CC2)cs1)c1ccccc1 [Example 4, 3-[(Z)-({[4-(cyclopropylethynyl)-1,3-thiazol-2-yl]methoxy}imino)(phenyl)methyl]-2-methyl-1,2,4-oxadiazol-5(2H)-one] | 100 |  | 3.04 | 
CC(Oc1ccccc1)C(=O)Nc1csc(CO/N=C(/c2ccccc2)c2noc(=O)n2C)n1 (stereo not shown) [Example 40] | 100 | 3.55^[a] |  | Eff. % (Plasmopara viticola): 99%
Cn1oc(=O)nc1/C(=N\OCn1ccc(N)n1)c1ccccc1 [Example 8, 3-[(Z)-{[(3-amino-1H-pyrazol-1-yl)methoxy]imino}(phenyl)methyl]-2-methyl-1,2,4-oxadiazol-5(2H)-one] |  |  | 1.29 | 
CCCC#Cc1csc(CO/N=C(/c2ccccc2)c2noc(=O)n2C)n1 [Example 22] | 100 | 3.87^[a] |  | Eff. % (Plasmopara viticola): 85%
Cn1oc(=O)nc1/C(=N\OCn1ccc([N+](=O)[O-])n1)c1ccccc1 [Example 2, 2-methyl-3-[(Z)-{[(3-nitro-1H-pyrazol-1-yl)methoxy]imino}(phenyl)methyl]-1,2,4-oxadiazol-5(2H)-one] |  |  | 2.1 | 
Cn1c(/C(=N\OCc2nc(C#CCCCc3ccccc3)cs2)c2ccccc2)noc1=O [Example 20] | 90 | 4.68^[a] |  | % efficacy (Uromyces appendiculatus): 81%; % efficacy (Puccinia recondita): 78%
Cc1ccc(C(=O)Nc2csc(CO/N=C(/c3ccccc3)c3noc(=O)n3C)n2)cc1 [Example 17] | 100 | 3.34^[a] |  | Eff. % (Plasmopara viticola): 84%
Cn1c(/C(=N\OCc2nc(NC(=O)OC(C)(C)C)cs2)c2ccccc2)noc1=O [Example 6] | 100 | 3.64^[a] |  | % efficacy (Pyrenophora teres): 80%; Eff. % (Plasmopara viticola): 99%
Cn1c(/C(=N\OCc2nc(NC(=O)C3CCc4ccccc4O3)cs2)c2ccccc2)noc1=O (stereo not shown) [Example 27] | 92 | 3.77^[a] |  | Eff. % (Plasmopara viticola): 99%
Cn1c(/C(=N\OCc2nc(C(=O)NC(C)(C)C)cs2)c2ccccc2)noc1=O [Example 5] | 100 | 3.22^[a] |  | % efficacy (Septoria tritici): 86%
Cn1c(/C(=N\OCc2nc(C#Cc3ccc(F)cc3)cs2)c2ccccc2)noc1=O [Example 13] | 95 | 4.09^[a] |  | % efficacy (Pyricularia oryzae): 79%
Cn1c(/C(=N\OCc2nc(C#CC3CC3)cs2)c2ccccc2)noc1=O [Example 10] | 100 | 3.56^[a] |  | % efficacy (Alternaria brassicae): 97%
Cn1oc(=O)nc1/C(=N\OCc1nc(Br)cs1)c1ccccc1 [Example 14, 3-[(Z)-{[(4-bromo-1,3-thiazol-2-yl)methoxy]imino}(phenyl)methyl]-2-methyl-1,2,4-oxadiazol-5(2H)-one] | 74 |  | 2.6 | 
CC(OCC(=O)Nc1csc(CO/N=C(/c2ccccc2)c2noc(=O)n2C)n1)c1ccccc1 (stereo not shown) [Example 38] | 100 | 4.32^[a] |  | Eff. % (Plasmopara viticola): 96%
CN(O)C(=N)/C(=N\OCc1nc(Br)cs1)c1ccccc1 [Example VI-2, (2Z)-2-{[(4-bromo-1,3-thiazol-2yl)methoxy]imino}-N-hydroxy-N-methyl-2-phenylethanimidamide] |  |  | 1.49 | 
N#CC(=NOCc1nc(Br)cs1)c1ccccc1 [Example IV-3, {[(4-bromo-1,3-thiazol-2-yl)methoxy]imino}(phenyl)acetonitrile] |  |  | 3.61 | 
Cn1c(/C(=N\OCc2nc(/C=C/C3CC3)cs2)c2ccccc2)noc1=O [Example 34] | 100 | 3.90^[a] |  | % efficacy (Septoria tritici): 86%
CCCCCCNC(=O)c1csc(CO/N=C(/c2ccccc2)c2noc(=O)n2C)n1 [Example 18] | 99 | 3.76^[a] |  | % efficacy (Pyrenophora teres): 71%; % efficacy (Uromyces appendiculatus): 72%
CN(O)C(=N)/C(=N\OCn1ccc([N+](=O)[O-])n1)c1ccccc1 [Example VI-1, (2Z)—N-hydroxy-N-methyl-2-{[(3-nitro-1H-pyrazol-1-yl)methoxy]imino}-2-phenylethanimidamide] |  |  | 1.15 | 
Cn1c(/C(=N\OCc2nc(C(=O)Nc3ccccc3)cs2)c2ccccc2)noc1=O [Example 16] | 80 | 3.29^[a] |  | % efficacy (Pyrenophora teres): 71%; % efficacy (Septoria tritici): 79%
N#C/C(=N\OCn1ccc([N+](=O)[O-])n1)c1ccccc1 [Example IV-1, (2Z)-{[(3-nitro-1H-pyrazol-1-yl)methoxy]imino}(phenyl)acetonitrile] |  |  | 2.9 | 
Cn1c(/C(=N\OCc2nc(/C=C/C3CCCCC3)cs2)c2ccccc2)noc1=O [Example 29] | 83 | 5.39^[a] |  | % efficacy (Septoria tritici): 79%
CCCCC#Cc1csc(CO/N=C(/c2ccccc2)c2noc(=O)n2C)n1 [Example 21] | 100 | 4.26^[a] |  | 
